Columns and labels:
barnyardgrass [1] = test: Test C preemergence; type: in vivo, Echinochloa crus-galli; details: Echinochloa crus-galli, pre-emergence
Summary of the method: (§1)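 Rated visually on 0–100 (100 = complete control) after 13–15 days under glass. Treatments went onto freshly seeded loam/sand soil or onto emerged plants at the 1- to 4-leaf stage, using a surfactant-containing solvent formulation.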

morningglory = test: Test C preemergence; type: in vivo, Ipomoea coccinea; details: Ipomoea, pre-emergence, preemergence, read-out: Morningglory plant response rating
Summary of the method: as §1

barnyardgrass [2] = test: Test C postemergence; type: in vivo, Echinochloa crus-galli; details: Echinochloa crus-galli, post-emergence
Summary of the method: as §1

oilseed rape = test: Test C preemergence; type: in vivo, Brassica napus; details: Brassica napus, pre-emergence, preemergence, read-out: Oilseed Rape plant response rating
Summary of the method: as §1

blackgrass [3] = test: Test C postemergence; type: in vivo, Alopecurus myosuroides; details: Alopecurus myosuroides, post-emergence
Summary of the method: as §1

blackgrass [4] = test: Test C preemergence; type: in vivo, Alopecurus myosuroides; details: Alopecurus myosuroides, pre-emergence
Summary of the method: as §1

soybean = test: Test C preemergence; type: in vivo, Glycine max; details: Glycine max, pre-emergence, preemergence, read-out: Soybean plant response rating
Summary of the method: as §1

waterhemp [5] = test: Test C preemergence; type: in vivo, Amaranthus rudis; details: Amaranthus tuberculatus, pre-emergence, preemergence, read-out: Waterhemp plant response rating
Summary of the method: as §1

ragweed = test: Test C preemergence; type: in vivo, Ambrosia elatior; details: Ambrosia artemisiifolia, pre-emergence, preemergence, read-out: Ragweed plant response rating
Summary of the method: as §1

pigweed = test: Test C postemergence; type: in vivo, Amaranthus retroflexus; details: Amaranthus retroflexus, post-emergence
Summary of the method: as §1

corn [6] = test: Test C postemergence; type: in vivo, Zea mays; details: Zea mays, post-emergence
Summary of the method: as §1

lambsquarters = test: Test C postemergence; type: in vivo, Chenopodium album; details: Chenopodium album, post-emergence
Summary of the method: as §1

giant foxtail = test: Test A preemergence; type: in vivo, Setaria faberii; details: Setaria faberi, pre-emergence, 240 h, 0 to 100 scale where 0 is no effect and 100 is complete control
Summary of the method: (§2)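 Compounds in non-phytotoxic solvent with surfactant applied as soil spray preemergence, or postemergence to plants 2-10 cm at one- to two-leaf stage, in loam/sand. After approximately 10 days in greenhouse, injury rated visually versus untreated controls, 0 (no effect) to 100 (complete control).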

barnyardgrass [7] = test: Test A preemergence; type: in vivo, Echinochloa crus-galli; details: Echinochloa crus-galli, pre-emergence, 240 h, 0 to 100 scale where 0 is no effect and 100 is complete control
Summary of the method: as §2

Italian ryegrass = test: Test C postemergence; type: in vivo, Lolium multiflorum; details: Lolium multiflorum, post-emergence
Summary of the method: as §1

corn [8] = test: Test C preemergence; type: in vivo, Zea mays; details: Zea mays, pre-emergence
Summary of the method: as §1

waterhemp [9] = test: Test C postemergence; type: in vivo, Amaranthus rudis; details: Amaranthus tuberculatus, post-emergence
Summary of the method: as §1

[10] = 16 g ai/ha, scale 0 to 100 (0 no effect, 100 complete control)
[11] = 62 g ai/ha, scale 0 (no effect) to 100 (complete control)
[12] = 125 g ai/ha, scale 0 (no effect) to 100 (complete control)

## FC(F)(F)COc1cnn(-c2ccccc2Oc2ncc(Cl)cn2)c1 [Compound 138, 5-chloro-2-[2-[4-(2,2,2-trifluoroethoxy)-1H-pyrazol-1-yl]phenoxy]pyrimidine]
Barnyardgrass [1]; 16 g ai/ha, preemergence, scale 0 to 100 (0 no effect, 100 complete control), read-out: Barnyardgrass plant response rating
  pest or weed control at 16 g/ha: 10%
Barnyardgrass [1]; 62 g ai/ha, preemergence, scale 0 (no effect) to 100 (complete control), read-out: Barnyardgrass plant response rating
  pest or weed control at 62 g/ha: 65%
Barnyardgrass [1]; 125 g ai/ha, preemergence, scale 0 (no effect) to 100 (complete control), read-out: Barnyardgrass plant response rating
  pest or weed control at 125 g/ha: 95%
Barnyardgrass [1]; Preemergence, 31 g ai/ha, scale 0 to 100, 0 no effect, 100 complete control, read-out: Plant response rating, Barnyardgrass
  pest or weed control at 31 g/ha: 25%
morningglory; [10]
  pest or weed control at 16 g/ha: 0%
morningglory; [11]
  pest or weed control at 62 g/ha: 10%
morningglory; [12]
  pest or weed control at 125 g/ha: 35%
Barnyardgrass [2]; 16 g ai/ha, postemergence, 0 is no effect, 100 is complete control, read-out: Plant response rating (0 to 100), Barnyardgrass
  pest or weed control at 16 g/ha: 5%
Barnyardgrass [2]; 125 g ai/ha, postemergence, visual rating, scale 0 to 100 (0 no effect, 100 complete control), read-out: Plant response rating, Barnyardgrass
  pest or weed control at 125 g/ha: 5%
Barnyardgrass [2]; Postemergence, 31 g ai/ha, scale 0 to 100 (0 no effect, 100 complete control), 13 to 15 days, read-out: Plant response rating, Barnyardgrass
  pest or weed control at 31 g/ha: 5%
Barnyardgrass [2]; Postemergence, 62 g ai/ha, scale 0 to 100 (0 no effect, 100 complete control), read-out: Plant response rating, Barnyardgrass
  pest or weed control at 62 g/ha: 5%
Oilseed rape; [10]
  plant injury at 16 g/ha: 80%
Oilseed rape; [11]
  plant injury at 62 g/ha: 100%
Oilseed rape; [12]
  plant injury at 125 g/ha: 100%
Blackgrass [3]; 16 g ai/ha, postemergence, 0 is no effect, 100 is complete control, read-out: Plant response rating (0 to 100), Blackgrass
  pest or weed control at 16 g/ha: 0%
Blackgrass [3]; 125 g ai/ha, postemergence, visual rating, scale 0 to 100 (0 no effect, 100 complete control), read-out: Plant response rating, Blackgrass
  pest or weed control at 125 g/ha: 10%
Blackgrass [3]; Postemergence, 31 g ai/ha, scale 0 to 100 (0 no effect, 100 complete control), 13 to 15 days, read-out: Plant response rating, Blackgrass
  pest or weed control at 31 g/ha: 5%
Blackgrass [3]; Postemergence, 62 g ai/ha, scale 0 to 100 (0 no effect, 100 complete control), read-out: Plant response rating, Blackgrass
  pest or weed control at 62 g/ha: 5%
Blackgrass [4]; 16 g ai/ha, preemergence, scale 0 to 100 (0 no effect, 100 complete control), read-out: Blackgrass plant response rating
  pest or weed control at 16 g/ha: 5%
Blackgrass [4]; 62 g ai/ha, preemergence, scale 0 (no effect) to 100 (complete control), read-out: Blackgrass plant response rating
  pest or weed control at 62 g/ha: 80%
Blackgrass [4]; 125 g ai/ha, preemergence, scale 0 (no effect) to 100 (complete control), read-out: Blackgrass plant response rating
  pest or weed control at 125 g/ha: 90%
Blackgrass [4]; Preemergence, 31 g ai/ha, scale 0 to 100, 0 no effect, 100 complete control, read-out: Plant response rating, Blackgrass
  pest or weed control at 31 g/ha: 20%
soybean; [10]
  plant injury at 16 g/ha: 20%
soybean; [11]
  plant injury at 62 g/ha: 90%
soybean; [12]
  plant injury at 125 g/ha: 90%
Waterhemp [5]; [10]
  pest or weed control at 16 g/ha: 100%
Waterhemp [5]; [11]
  pest or weed control at 62 g/ha: 100%
Waterhemp [5]; [12]
  pest or weed control at 125 g/ha: 100%
ragweed; [10]
  pest or weed control at 16 g/ha: 0%
ragweed; [11]
  pest or weed control at 62 g/ha: 5%
ragweed; [12]
  pest or weed control at 125 g/ha: 10%
pigweed; 16 g ai/ha, postemergence, 0 is no effect, 100 is complete control, read-out: Plant response rating (0 to 100), Pigweed
  pest or weed control at 16 g/ha: 60%
pigweed; 125 g ai/ha, postemergence, visual rating, scale 0 to 100 (0 no effect, 100 complete control), read-out: Plant response rating, Pigweed
  pest or weed control at 125 g/ha: 80%
pigweed; Postemergence, 62 g ai/ha, scale 0 to 100 (0 no effect, 100 complete control), read-out: Plant response rating, Pigweed
  pest or weed control at 62 g/ha: 80%
Corn [6]; 16 g ai/ha, postemergence, 0 is no effect, 100 is complete control, read-out: Plant response rating (0 to 100), Corn
  plant injury at 16 g/ha: 5%
Corn [6]; 125 g ai/ha, postemergence, visual rating, scale 0 to 100 (0 no effect, 100 complete control)
  Corn plant response rating (crop injury, 0 = no effect, 100 = complete kill) at 125 g/ha: 10%
Corn [6]; Postemergence, 62 g ai/ha, scale 0 to 100 (0 no effect, 100 complete control)
  Corn plant response rating (crop injury, 0 = no effect, 100 = complete kill) at 62 g/ha: 5%
lambsquarters; 16 g ai/ha, postemergence, 0 is no effect, 100 is complete control, read-out: Plant response rating (0 to 100), Lambsquarters
  pest or weed control at 16 g/ha: 20%
lambsquarters; 125 g ai/ha, postemergence, visual rating, scale 0 to 100 (0 no effect, 100 complete control), read-out: Plant response rating, Lambsquarters
  pest or weed control at 125 g/ha: 75%
lambsquarters; Postemergence, 62 g ai/ha, scale 0 to 100 (0 no effect, 100 complete control), read-out: Plant response rating, Lambsquarters
  pest or weed control at 62 g/ha: 60%
Giant foxtail; 125 g ai/ha, read-out: Plant response rating, Foxtail, Giant
  pest or weed control at 125 g/ha: 90%
Giant foxtail; 500 g ai/ha, read-out: Foxtail, Giant plant response rating
  pest or weed control at 500 g/ha: 100%
Barnyardgrass [7]; 125 g ai/ha, read-out: Plant response rating, Barnyardgrass
  pest or weed control at 125 g/ha: 80%
Barnyardgrass [7]; 500 g ai/ha, read-out: Barnyardgrass plant response rating
  pest or weed control at 500 g/ha: 100%
Italian ryegrass; 16 g ai/ha, postemergence, 0 is no effect, 100 is complete control, read-out: Plant response rating (0 to 100), Ryegrass, Italian
  pest or weed control at 16 g/ha: 0%
Italian ryegrass; 125 g ai/ha, postemergence, visual rating, scale 0 to 100 (0 no effect, 100 complete control), read-out: Plant response rating, Ryegrass, Italian
  pest or weed control at 125 g/ha: 5%
Italian ryegrass; Postemergence, 62 g ai/ha, scale 0 to 100 (0 no effect, 100 complete control), read-out: Plant response rating, Ryegrass, Italian
  pest or weed control at 62 g/ha: 0%
Corn [8]; 16 g ai/ha, preemergence, scale 0 to 100 (0 no effect, 100 complete control), read-out: Corn plant response rating
  plant injury at 16 g/ha: 0%
Corn [8]; 62 g ai/ha, preemergence, scale 0 (no effect) to 100 (complete control), read-out: Corn plant response rating
  plant injury at 62 g/ha: 0%
Corn [8]; 125 g ai/ha, preemergence, scale 0 (no effect) to 100 (complete control), read-out: Corn plant response rating
  plant injury at 125 g/ha: 25%
Corn [8]; Preemergence, 31 g ai/ha, scale 0 to 100, 0 no effect, 100 complete control
  Corn plant response rating (crop injury, 0 = no effect, 100 = complete kill) at 31 g/ha: 0%
Waterhemp [9]; 16 g ai/ha, postemergence, 0 is no effect, 100 is complete control, read-out: Plant response rating (0 to 100), Waterhemp
  pest or weed control at 16 g/ha: 60%
Waterhemp [9]; 125 g ai/ha, postemergence, visual rating, scale 0 to 100 (0 no effect, 100 complete control), read-out: Plant response rating, Waterhemp
  pest or weed control at 125 g/ha: 85%
Waterhemp [9]; Postemergence, 62 g ai/ha, scale 0 to 100 (0 no effect, 100 complete control), read-out: Plant response rating, Waterhemp
  pest or weed control at 62 g/ha: 75%

Source: patent US9695155B2, “Herbicidal substituted pyrimidinyloxy benzene compounds” (E. I. DU PONT DE NEMOURS AND COMPANY, priority 2013, dated 2017)
